Patent publication US11453683B1, “KRas G12D inhibitors” (Mirati Therapeutics, Inc., priority 2019, dated 2022)
pIC50: −log10 of the molar value.

Test system: KRas G12D-mediated phosphorylation of ERK
Experiment: Inhibition of KRas G12D-mediated phosphorylation of ERK in AGS cells
Type: cell-based
Conditions: Homo sapiens; AGS cells expressing G12D, 3 hours, phospho-ERK normalized to GAPDH
Outline: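 Fixed, methanol-permeabilized; phospho-ERK (Thr202/Tyr204) by in-cell immunofluorescence normalized to GAPDH. Percent of DMSO control, IC50 by 4-parameter fit.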

Structure (SMILES)	pIC50
CN1CCC[C@H]1COc1nc(N2CC3CCC(CCC#N)(C2)N3)c2cnc(-c3cc(O)cc4ccccc34)c(F)c2n1 (stereo partly drawn) [Example 157, 3-(3-(8-fluoro-7-(3-hydroxynaphthalen-1-yl)-2-(((S)-1-methylpyrrolidin-2-yl)methoxy)pyrido[4,3-d]pyrimidin-4-yl)-3,8-diazabicyclo[3.2.1]octan-1-yl)propanenitrile bis(2,2,2-trifluoroacetate)]	5.10
CCC1(N)CN(c2nc(N3C[C@H]4CC[C@@H](C3)N4)c3cnc(-c4cc(O)cc5ccccc45)c(F)c3n2)C1 [Example 126, 4-(2-(3-amino-3-ethylazetidin-1-yl)-4-((1R,5S)-3,8-diazabicyclo[3.2.1]octan-3-yl)-8-fluoropyrido[4,3-d]pyrimidin-7-yl)naphthalen-2-ol]	5.46
CO[C@@H]1C[C@@H](COc2nc(N3C[C@H]4CC[C@@H](C3)N4)c3cnc(-c4cc(O)cc5ccccc45)c(F)c3n2)N(C)C1 [Example 42, 4-(4-((1R,5S)-3,8-diazabicyclo[3.2.1]octan-3-yl)-8-fluoro-2-(((2S,4R)-4-methoxy-1-methylpyrrolidin-2-yl)methoxy)pyrido[4,3-d]pyrimidin-7-yl)naphthalen-2-ol]	6.20
CNc1nc(N2CC3CCC(C2)N3)c2cnc(-c3cc(O)cc4ccccc34)c(F)c2n1 [Example 183, 4-[4-(3,8-diazabicyclo[3.2.1]octan-3-yl)-8-fluoro-2-(methylamino)pyrido[4,3-d]pyrimidin-7-yl]naphthalen-2-ol]	5.28
Oc1cc(-c2ncc3c(N4C[C@H]5CC[C@@H](C4)N5)nc(OCC4CCCC4)nc3c2F)c2ccccc2c1 [Example 73, 4-(4-((1R,5S)-3,8-diazabicyclo[3.2.1]octan-3-yl)-2-(cyclopentylmethoxy)-8-fluoropyrido[4,3-d]pyrimidin-7-yl)naphthalen-2-ol]	< 5.26
CN1C[C@H](F)C[C@H]1COc1nc(N2C[C@H]3CC[C@@H](C2)N3)c2cnc(-c3cccc4cccc(Cl)c34)c(F)c2n1 [Example 115, 4-((1R,5S)-3,8-diazabicyclo[3.2.1]octan-3-yl)-7-(8-chloronaphthalen-1-yl)-8-fluoro-2-(((2S,4R)-4-fluoro-1-methylpyrrolidin-2-yl)methoxy)pyrido[4,3-d]pyrimidine]	5.02
COc1nc(N2C[C@H]3CC[C@@H](C2)N3)c2cnc(-c3cc(O)cc4cccc(Cl)c34)c(F)c2n1 [Example 360, 4-(4-((1R,5S)-3,8-diazabicyclo[3.2.1]octan-3-yl)-8-fluoro-2-methoxypyrido[4,3-d]pyrimidin-7-yl)-5-chloronaphthalen-2-ol]	5.08
Cc1cccc(CCOc2nc(N3C[C@H]4CC[C@@H](C3)N4)c3cnc(-c4cc(O)cc5ccccc45)c(F)c3n2)n1 [Example 87, 4-(4-((1R,5S)-3,8-diazabicyclo[3.2.1]octan-3-yl)-8-fluoro-2-(2-(6-methylpyridin-2-yl)ethoxy)pyrido[4,3-d]pyrimidin-7-yl)naphthalen-2-ol]	4.98
CCc1cccc2cc(O)cc(-c3ncc4c(N5C[C@H]6CC[C@@H](C5)N6)nc(OC[C@]56CCCN5[C@@H](COC(=O)NC)CC6)nc4c3F)c12 [Example 433, ((3R,7aR)-7a-(((4-((1R,5S)-3,8-diazabicyclo[3.2.1]octan-3-yl)-7-(8-ethyl-3-hydroxynaphthalen-1-yl)-8-fluoropyrido[4,3-d]pyrimidin-2-yl)oxy)methyl)hexahydro-1H-pyrrolizin-3-yl)methyl methylcarbamate]	7.36
Oc1cc(-c2ncc3c(N4C[C@H]5CC[C@@H](C4)N5)nc(N4CC5(CCOCC5)C4)nc3c2F)c2ccccc2c1 [Example 74, 4-(4-((1R,5S)-3,8-diazabicyclo[3.2.1]octan-3-yl)-8-fluoro-2-(7-oxa-2-azaspiro[3.5]nonan-2-yl)pyrido[4,3-d]pyrimidin-7-yl)naphthalen-2-ol]	5.26
O=C(OC[C@H]1CC[C@@]2(COc3nc(N4CC5CCC(C4)N5)c4cnc(-c5cccc6cccc(Cl)c56)c(F)c4n3)CCCN12)N1CCCC1 [Example 443, ((3R,7aR)-7a-(((4-(3,8-diazabicyclo[3.2.1]octan-3-yl)-7-(8-chloronaphthalen-1-yl)-8-fluoropyrido[4,3-d]pyrimidin-2-yl)oxy)methyl)hexahydro-1H-pyrrolizin-3-yl)methyl pyrrolidine-1-carboxylate]	6.80
Fc1c(-c2cccc3cccc(C4CC4)c23)ncc2c(N3C[C@H]4CC[C@@H](C3)N4)nc(OCC34CCCN3CCC4)nc12 [Example 335, 4-((1R,5S)-3,8-diazabicyclo[3.2.1]octan-3-yl)-7-(8-cyclopropylnaphthalen-1-yl)-8-fluoro-2-((tetrahydro-1H-pyrrolizin-7a(5H)-yl)methoxy)pyrido[4,3-d]pyrimidine]	4.98
Oc1ccc(CC(F)(F)F)c(-c2ncc3c(N4C[C@H]5CC[C@@H](C4)N5)nc(OC[C@@]45CCCN4C[C@H](F)C5)nc3c2F)c1 [Example 424, 3-(4-((1R,5S)-3,8-diazabicyclo[3.2.1]octan-3-yl)-8-fluoro-2-(((2R,7aS)-2-fluorohexahydro-1H-pyrrolizin-7a-yl)methoxy)pyrido[4,3-d]pyrimidin-7-yl)-4-(2,2,2-trifluoroethyl)phenol]	6.17
CCc1cccc2cc(O)cc(-c3ncc4c(N5CC6CCC(C5)N6)nc(OC[C@]56CCCN5[C@@H](COC(=O)N(C)C)CC6)nc4c3F)c12 [Example 434, 7a-(((4-((1R,5S)-3,8-diazabicyclo[3.2.1]octan-3-yl)-7-(8-ethyl-3-hydroxynaphthalen-1-yl)-8-fluoropyrido[4,3-d]pyrimidin-2-yl)oxy)methyl)hexahydro-1H-pyrrolizin-3-yl)methyl dimethyl carbamate]	8.17
CNC(=O)OC[C@H]1CC[C@@]2(COc3nc(N4CC5CCC(C4)N5)c4cnc(-c5cccc6cccc(Cl)c56)c(F)c4n3)CCCN12 [Example 408, (7a-(((4-(3,8-diazabicyclo[3.2.1]octan-3-yl)-7-(8-chloronaphthalen-1-yl)-8-fluoropyrido[4,3-d]pyrimidin-2-yl)oxy)methyl)hexahydro-1H-pyrrolizin-3-yl)methyl methylcarbamate]	6.62
CC(C)n1ccnc1CCOc1nc(N2C[C@H]3CC[C@@H](C2)N3)c2cnc(-c3cc(O)cc4ccccc34)c(F)c2n1 [Example 91, 4-(4-((1R,5S)-3,8-diazabicyclo[3.2.1]octan-3-yl)-8-fluoro-2-(2-(1-isopropyl-1H-imidazol-2-yl)ethoxy)pyrido[4,3-d]pyrimidin-7-yl)naphthalen-2-ol]	5.26
CC1(C)CN2C[C@H](F)CC2(COc2nc(N3CC4CCC(C3)N4)c3cnc(-c4cccc5cccc(Cl)c45)c(F)c3n2)C1 (mixture of isomers) [Example 325, 4-((1R,5S)-3,8-diazabicyclo[3.2.1]octan-3-yl)-7-(8-chloronaphthalen-1-yl)-8-fluoro-2-((6-fluoro-2,2-dimethyltetrahydro-1H-pyrrolizin-7a(5H)-yl)methoxy)pyrido[4,3-d]pyrimidine]	< 4.78
Oc1cc(Cl)c(C2CC2)c(-c2ncc3c(N4C[C@H]5CC[C@@H](C4)N5)nc(OC[C@@]45CCCN4C[C@H](F)C5)nc3c2F)c1 [Example 283, 3-(4-((1R,5S)-3,8-diazabicyclo[3.2.1]octan-3-yl)-8-fluoro-2-(((2R,7aS)-2-fluorohexahydro-1H-pyrrolizin-7a-yl)methoxy)pyrido[4,3-d]pyrimidin-7-yl)-5-chloro-4-cyclopropylphenol]	8.15
CN1C[C@H](F)C[C@H]1COc1nc(N2C[C@H]3CC[C@@H](C2)N3)c2cnc(-c3cc(O)cc4ccccc34)c(F)c2n1 [Example 16, 4-(4-((1R,5S)-3,8-diazabicyclo[3.2.1]octan-3-yl)-8-fluoro-2-(((2S,4R)-4-fluoro-1-methylpyrrolidin-2-yl)methoxy)pyrido[4,3-d]pyrimidin-7-yl)naphthalen-2-ol]	5.42
C#Cc1c(F)ccc2cccc(-c3ncc4c(N5C[C@H]6CC[C@@H](C5)N6)nc(OC[C@]56CCCN5[C@@H](COC(=O)N(C)C)CC6)nc4c3F)c12 [Example 439, ((3R,7aR)-7a-(((4-((1R,5S)-3,8-diazabicyclo[3.2.1]octan-3-yl)-7-(8-ethynyl-7-fluoronaphthalen-1-yl)-8-fluoropyrido[4,3-d]pyrimidin-2-yl)oxy)methyl)hexahydro-1H-pyrrolizin-3-yl)methyl dimethylcarbamate]	7.89
O=C(CCl)N1CCC(Oc2nc(N3C[C@H]4CC[C@@H](C3)N4)c3cnc(-c4cccc5cccc(Cl)c45)c(F)c3n2)CC1 [Example 163, 1-(4-((4-((1R,5S)-3,8-diazabicyclo[3.2.1]octan-3-yl)-7-(8-chloronaphthalen-1-yl)-8-fluoropyrido[4,3-d]pyrimidin-2-yl)oxy)piperidin-1-yl)-2-chloroethan-1-one bis(2,2,2-trifluoroacetate)]	< 4.78
Cn1ccnc1CCOc1nc(N2C[C@H]3CC[C@@H](C2)N3)c2cnc(-c3cccc4cccc(Cl)c34)c(F)c2n1 [Example 114, 4-((1R,5S)-3,8-diazabicyclo[3.2.1]octan-3-yl)-7-(8-chloronaphthalen-1-yl)-8-fluoro-2-(2-(1-methyl-1H-imidazol-2-yl)ethoxy)pyrido[4,3-d]pyrimidine]	4.99
Fc1c(-c2cccc(Cl)c2C2CC2)ncc2c(N3C[C@H]4CC[C@@H](C3)N4)nc(OCC34CCCN3CCC4)nc12 [Example 322, 4-((1R,5S)-3,8-diazabicyclo[3.2.1]octan-3-yl)-7-(3-chloro-2-cyclopropylphenyl)-8-fluoro-2-((tetrahydro-1H-pyrrolizin-7a(5H)-yl)methoxy)pyrido[4,3-d]pyrimidine]	6.18
Fc1c(-c2cccc3cccc(Cl)c23)ncc2c(N3CC4CCC(C3)N4)nc(OC[C@@]34CCCN3C[C@@H](C(F)(F)F)C4)nc12 (mixture of isomers) [Example 382, 4-((1R,5S)-3,8-diazabicyclo[3.2.1]octan-3-yl)-7-(8-chloronaphthalen-1-yl)-8-fluoro-2-(((2S,7aS)-2-(trifluoromethyl)tetrahydro-1H-pyrrolizin-7a(5H)-yl)methoxy)pyrido[4,3-d]pyrimidine) (mixture of cis diastereomers)]	< 4.78
